Experimental data: the supplement of paper PMC10307832

Columns and labels:
Test in all cases: relative viability (nuclei count vs DMSO), 5 days (fraction); higher = more cells survive
Venetoclax + Bortezomib = compound: CC1(C)CCC(CN2CCN(c3ccc(C(=O)NS(=O)(=O)c4ccc(NCC5CCOCC5)c([N+](=O)[O-])c4)c(Oc4cnc5[nH]ccc5c4)c3)CC2)=C(c2ccc(Cl)cc2)C1 [Venetoclax] + CC(C)C[C@H](NC(=O)[C@H](Cc1ccccc1)NC(=O)c1cnccn1)B(O)O [Bortezomib] (partner 0.002 µM)
Outline: (§1)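 Nuclei were stained with Hoechst during a one-step fixation (final 0.05% Triton X-100, 1% formaldehyde, 1 ug/ml Hoechst) carried out 5 days after dosing, then counted on 4× images. The cells, lung cancer lines in 1536-well plates, had been dosed by pin tool the day after seeding with one drug alone or a fixed anchor-drug dose plus five library-drug doses (not always all listed) in √10 steps. Relative viability is the nuclei count in treated wells divided by that in vehicle wells, and each value is the median of duplicate plates.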

Venetoclax + Dasatinib = compound: CC1(C)CCC(CN2CCN(c3ccc(C(=O)NS(=O)(=O)c4ccc(NCC5CCOCC5)c([N+](=O)[O-])c4)c(Oc4cnc5[nH]ccc5c4)c3)CC2)=C(c2ccc(Cl)cc2)C1 [Venetoclax] + Cc1nc(Nc2ncc(C(=O)Nc3c(C)cccc3Cl)s2)cc(N2CCN(CCO)CC2)n1 [Dasatinib] (partner 0.075 µM)
Outline: as §1

Selumetinib + Trametinib = compound: Cn1cnc2c(F)c(Nc3ccc(Br)cc3Cl)c(C(=O)NOCCO)cc21 [Selumetinib] + CC(=O)Nc1cccc(-n2c(=O)n(C3CC3)c(=O)c3c(Nc4ccc(I)cc4F)n(C)c(=O)c(C)c32)c1 [Trametinib] (partner 0.02 µM)
Outline: as §1

Selumetinib + Foretinib = compound: Cn1cnc2c(F)c(Nc3ccc(Br)cc3Cl)c(C(=O)NOCCO)cc21 [Selumetinib] + COc1cc2c(Oc3ccc(NC(=O)C4(C(=O)Nc5ccc(F)cc5)CC4)cc3F)ccnc2cc1OCCCN1CCOCC1 [Foretinib] (partner 0.25 µM)
Outline: as §1

Cell Line	relative viability (Venetoclax + Bortezomib; first compound 0.01 µM)	relative viability (Venetoclax + Bortezomib; first compound 0.03162 µM)	relative viability (Venetoclax + Bortezomib; first compound 0.1 µM)	relative viability (Venetoclax + Bortezomib; first compound 0.3162 µM)	relative viability (Venetoclax + Bortezomib; first compound 1 µM)	relative viability (Venetoclax + Dasatinib; first compound 0.01 µM)	relative viability (Venetoclax + Dasatinib; first compound 0.03162 µM)	relative viability (Venetoclax + Dasatinib; first compound 0.1 µM)	relative viability (Venetoclax + Dasatinib; first compound 0.3162 µM)	relative viability (Venetoclax + Dasatinib; first compound 1 µM)	relative viability (Selumetinib + Trametinib; first compound 0.02 µM)	relative viability (Selumetinib + Trametinib; first compound 0.06325 µM)	relative viability (Selumetinib + Trametinib; first compound 0.2 µM)	relative viability (Selumetinib + Trametinib; first compound 0.6325 µM)	relative viability (Selumetinib + Foretinib; first compound 0.02 µM)	relative viability (Selumetinib + Foretinib; first compound 0.06325 µM)	relative viability (Selumetinib + Foretinib; first compound 0.2 µM)	relative viability (Selumetinib + Foretinib; first compound 0.6325 µM)
NCI-H2126	1.05	1.12	1.09	1.14	1.11	0.568	0.572	0.612	0.607	0.546	0.569	0.574	0.6	0.622	1.13	0.993	1.05	0.933
NCI-H23	0.95	0.952	1.06	1.07	0.9	0.664	0.781	0.636	0.706	0.628	0.4	0.402	0.322	0.331	0.952	0.916	0.654	0.612
EMC-BAC-2	1.02	1.05	0.958	1.02	1.04	0.331	0.343	0.292	0.327	0.31	0.909	0.833	0.937	0.774	0.882	0.972	0.85	0.875
NCI-H2023	0.964	1	1.03	1.01	0.853	0.697	0.53	0.653	0.512	0.46	0.51	0.467	0.535	0.51	0.709	0.811	0.6	0.572
NCI-H647	1.08	1.2	–	0.944	1.02	0.16	0.218	0.162	0.238	0.228	0.478	0.391	0.405	0.484	1.19	1.21	0.842	1.02
NCI-H661	0.722	0.762	0.717	0.799	0.646	0.809	1.04	0.871	0.995	0.888	0.585	0.575	0.567	0.537	1.12	0.979	1.02	0.913
NCI-H1975	0.424	0.393	0.35	0.344	0.299	0.355	0.4	0.372	0.318	0.322	0.332	0.34	0.37	0.31	0.992	1.09	1.03	0.724
ChaGo-K-1	1.08	1.11	–	1.08	0.926	0.722	0.601	0.59	0.598	0.547	0.908	0.891	0.897	0.92	0.833	0.924	0.906	0.769
NCI-H1437	0.451	0.572	0.475	0.42	0.492	0.508	0.494	0.274	0.44	0.478	0.558	0.546	0.516	0.528	1.33	1.3	1.17	0.708
